Data set [1] can be described thus: Cytotoxicity against wild type human THP1-Dual cells assessed as cell viability incubated for 24 hrs by CellTiter 96 aqueous one solution assay relative to control. Also on record: concentration or dose not given beside the values. The note with it: read-out: Activity. The class given is toxicity, cell-based.
A short description of data set [2]: Cytotoxicity against human THP1-Dual KO-STING cells assessed as cell viability incubated for 24 hrs by CellTiter 96 aqueous one solution assay relative to control. The class given is toxicity, cell-based. Also on record: concentration or dose not given beside the values. The conditions noted are these: read-out: Activity.
Data set [3] has as its target Stimulator of interferon genes protein (Homo sapiens, UniProt Q86WV6). In words: Agonist activity at STING in wild type human THP1-Dual cells assessed as increase in IRF-mediated immune response incubated for 24 hrs by QUANTI-Luc assay. The class given is cell-based.

Chain of Stimulator of interferon genes protein (Q86WV6 whole entry): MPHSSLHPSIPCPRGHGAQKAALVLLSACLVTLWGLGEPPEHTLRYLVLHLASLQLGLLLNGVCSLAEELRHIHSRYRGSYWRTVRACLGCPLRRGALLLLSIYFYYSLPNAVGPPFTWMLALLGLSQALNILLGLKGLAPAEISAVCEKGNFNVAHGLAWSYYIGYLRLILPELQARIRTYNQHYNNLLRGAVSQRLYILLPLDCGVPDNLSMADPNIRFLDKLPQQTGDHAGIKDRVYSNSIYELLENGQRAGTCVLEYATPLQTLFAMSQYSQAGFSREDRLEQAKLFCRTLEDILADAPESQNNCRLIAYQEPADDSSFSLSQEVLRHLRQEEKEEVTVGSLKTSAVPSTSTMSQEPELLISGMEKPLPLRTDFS

Turning to `Cc1ncccc1C(=O)Nc1nc2cc(C(N)=O)ccc2n1CCCN`, the viability at 24 h was found to be 105% in data set [1] and 100% in data set [2].

In general, EC50 refers to the concentration giving half of the maximal effect. For `CCn1nc(C)cc1C(=O)Nc1nc2cc(C(N)=O)ccc2n1CCCCn1c(NC(=O)c2cc(C)nn2CC)nc2cc(C(N)=O)ccc21`, the EC50 in data set [3] stood at 9.2 µM. Further, the results for the viability at 24 h in data set [1] and in data set [2] were 101% and 117%, respectively.

Regarding `Cc1ccc(C(=O)Nc2nc3cc(C(N)=O)ccc3n2CCCCNC(=O)OC(C)(C)C)c(C)n1`, the viability at 24 h in data set [1] was determined as 112%; in data set [2] it was 93.2%.

Consider `Cc1ncccc1C(=O)Nc1nc2cc(C(N)=O)ccc2n1CCCCN`, for which the viability at 24 h in data set [1] stood at 105%; in data set [2] it was 98.5%.

Take `CC(C)(C)OC(=O)NCCCCn1c(NC(=O)c2cccnc2)nc2cc(C(N)=O)ccc21`: the EC50 in data set [3] amounted to 42.1 µM. Also, the viability at 24 h in data set [1] came to 97.4%; in data set [2], 93.3%.

With `Cc1ncccc1C(=O)Nc1nc2cc(C(N)=O)ccc2n1CCCNC(=O)OC(C)(C)C`, the viability at 24 h is 102% in data set [1] and 93.6% in data set [2].

On to `CC(=O)NCCCCn1c(NC(=O)c2cccnc2C)nc2cc(C(N)=O)ccc21`, for which the viability at 24 h is 99.7% in data set [1] and 97.4% in data set [2].

Consider `Cc1ncccc1C(=O)Nc1nc2cc(C(N)=O)ccc2n1CCCCCN`, for which the viability at 24 h in data set [1] stood at 110%; in data set [2], 99.3%.

Consider `CCc1ncccc1C(=O)Nc1nc2cc(C(N)=O)ccc2n1CCCCNC(=O)OC(C)(C)C`, for which the viability at 24 h was determined as 89.2% in data set [1] and 94.7% in data set [2].

As to `CCn1nc(C)cc1C(=O)Nc1nc2cc(C(N)=O)ccc2n1CCCCNC(=O)OC(C)(C)C`, the 50% effective concentration (EC50) in data set [3] stood at 19.6 µM. The viability at 24 h in data set [1] came to 69%; in data set [2], 105%.

As to `Cc1ccncc1C(=O)Nc1nc2cc(C(N)=O)ccc2n1CCCCNC(=O)OC(C)(C)C`, the figures for the viability at 24 h in data set [1] and in data set [2] were 88.5% and 87.8%, respectively.

Consider `COc1cc(C(N)=O)cc2nc(NC(=O)c3ccc(C(F)(F)F)nc3C)n(C/C=C/CNC(=O)OC(C)(C)C)c12`, for which the results for the viability at 24 h in data set [1] and in data set [2] were 87.5% and 107%, respectively.

`Cc1ncccc1C(=O)Nc1nc2cc(C(N)=O)ccc2n1CCCCNC(=O)c1ccccc1`: the viability at 24 h stood at 101% in data set [1] and 93.8% in data set [2].

As to `Cc1ccc(C(=O)Nc2nc3cc(C(N)=O)ccc3n2CCCCNC(=O)OC(C)(C)C)cn1`, the results for the viability at 24 h in data set [1] and in data set [2] were 89.3% and 95.3%, respectively.

Turning to `Cc1ncccc1C(=O)Nc1nc2cc(C(N)=O)ccc2n1C`, the figures for the viability at 24 h in data set [1] and in data set [2] were 82.8% and 105%, respectively.

With `CC(C)(C)OC(=O)NCCCCn1c(NC(=O)c2ccccc2)nc2cc(C(N)=O)ccc21`, the viability at 24 h in data set [1] came to 82.1%; in data set [2] it was 101%.

`COc1cc(C(N)=O)cc2nc(NC(=O)c3cccnc3C)n(C/C=C/CNC(=O)OC(C)(C)C)c12`: the viability at 24 h in data set [1] turned out to be 106%; in data set [2] it was 97.5%.

In the case of `CC(C)(C)OC(=O)NCCCCn1c(NC(=O)c2cccnc2Cl)nc2cc(C(N)=O)ccc21`, the figures for the viability at 24 h in data set [1] and in data set [2] were 105% and 100%, respectively.

Turning to `Nc1nc2c(ncn2[C@@H]2O[C@@H]3COP(=O)(O)O[C@H]4[C@@H](O)[C@H](n5cnc6c(N)ncnc65)O[C@@H]4COP(=O)(O)O[C@H]3[C@H]2O)c(=O)[nH]1`, the viability at 24 h in data set [1] came out at 87%; in data set [2] it was 97.2%.

For the compound `CC(C)(C)OC(=O)NCCCCn1c(NC(=O)c2ccncc2)nc2cc(C(N)=O)ccc21`, the viability at 24 h in data set [1] was 86.9%; in data set [2] it was 90.6%.

As to `Cc1ncccc1C(=O)Nc1nc2cc(C(N)=O)ccc2n1CCCCn1c(NC(=O)c2cccnc2C)nc2cc(C(N)=O)ccc21`, the EC50 in data set [3] was found to be 18 µM. In addition, the viability at 24 h in data set [1] was determined as 91%; in data set [2], 118%.

For `CC(C)(C)OC(=O)NCCCCn1c(NC(=O)c2cccnc2C(C)(C)C)nc2cc(C(N)=O)ccc21`, the values for the viability at 24 h in data set [1] and in data set [2] were 91.6% and 106%, respectively.

As to `CC(C)(C)OC(=O)NCCCCn1c(NC(=O)c2cccnc2C(F)(F)F)nc2cc(C(N)=O)ccc21`, the viability at 24 h in data set [1] is 108%; in data set [2], 102%.

For `CC(C)(C)OC(=O)NCCCCn1c(NC(=O)c2cccnc2F)nc2cc(C(N)=O)ccc21`, the viability at 24 h in data set [1] turned out to be 107%; in data set [2], 108%.

Regarding `Cc1ncccc1C(=O)Nc1nc2cc(C(N)=O)ccc2n1CCCCCNC(=O)OC(C)(C)C`, the viability at 24 h is 92.2% in data set [1] and 92% in data set [2].

Turning to `CC(C)(C)OC(=O)NCCCCn1c(NC(=O)c2ccc(C(F)(F)F)nc2)nc2cc(C(N)=O)ccc21`, the viability at 24 h in data set [1] is 106%; in data set [2], 108%.

In the case of `Cc1cncc(C(=O)Nc2nc3cc(C(N)=O)ccc3n2CCCCNC(=O)OC(C)(C)C)c1`, the viability at 24 h in data set [1] was found to be 90.7%; in data set [2], 97.4%.

On to `CC(C)(C)OC(=O)NCCCCn1c(NC(=O)c2ccc(F)nc2)nc2cc(C(N)=O)ccc21`, for which the viability at 24 h in data set [1] was determined as 102%; in data set [2], 107%.

Take `Cc1nc(C(F)(F)F)ccc1C(=O)Nc1nc2cc(C(N)=O)ccc2n1CCCCNC(=O)OC(C)(C)C`: the EC50 in data set [3] is 29.7 µM. Moreover, the viability at 24 h in data set [1] is 106%; in data set [2] it was 97.5%.

With `CCn1nc(C)cc1C(=O)NCCCCn1c(NC(=O)c2cccnc2C)nc2cc(C(N)=O)ccc21`, the viability at 24 h in data set [1] is 98.5%; in data set [2] it was 105%.
